# Measurements taken from PMC8400246, “Antimicrobial Activity and Action Mechanisms of Arg-Rich Short Analog Peptides Designed from the C-Terminal Loop Region of American Oyster Defensin (AOD)” (Marine Drugs, 2021).
# Positions of bridges follow the written chain, without caps; N, C: chain ends. Residues, ends and D or L forms follow the SMILES beside them.
# Columns and labels:
# [1] = system: E. coli DH5α genomic DNA (16S ribosomal gene); test: DNA amplification (PCR) inhibition assay; format: biochemical, Escherichia coli; settings: 1.5 µg of each analog, 0.2 µg E. coli DH5α gDNA, 30 cycles
# Description: To determine whether AOD analogs target DNA amplification, the ability of the analogs to inhibit DNA amplification was assessed using E. coli DH5α genomic DNA (gDNA). Total gDNA was extracted using the phenol–chloroform method, as described previously. To assess the inhibition of DNA amplification, 1.5 µg AOD analog was added to the polymerase chain reaction (PCR) mixture. The PCR solution consisted of 0.2 µg purified gDNA, 5 µL 10× PCR buffer with MgCl2, 4 µL of each dNTP at 2.5 mM, 0.25 μL Ex Taq polymerase (Takara Bio, Shiga, Japan), 2.0 pmol each of primers 27F (5′-[…]-3′) and 1492R (5′-TACGGCTACCTTGTTACGA-CTT-3′), and up to 50 µL sterile distilled water. The PCR thermal cycling conditions were as follows: initial denaturation at 94 °C for 5 min; 30 cycles of 94 °C for 30 s, 55 °C for 30 s, and 72 °C for 2 min; and a final extension for 10 min at 72 °C. PCR was conducted using a Type 9700 Thermal Cycler (Perkin-Elmer, Norwalk City, CA, USA). The PCR products were confirmed through 1.5% agarose gel electrophoresis with 0.5 μg/mL EtBr. Piscidin 1 was used as a positive control and 0.01% HAc was used as a negative control.
# [2] = system: 100-bp DNA ladder and DNA polymerase; test: Competitive binding between DNA and DNA polymerase; settings: 1 μg peptide, 0.2 μg 100-bp DNA ladder, DNA polymerase 1.0 μL (5 units/μL), 37 °C, 60 min
# Description: To assess the preferential binding ability of the AOD analogs to DNA or DNA polymerase, a competitive binding assay was performed. Briefly, AOD analog was added to a reaction mixture containing DNA or DNA polymerase and incubated for 60 min at 37 °C. […] Piscidin 1 and 0.01% HAc were the positive and negative controls, respectively.
# P. aeruginosa KCTC2004 = test: Ultrasensitive radial diffusion assay (URDA), MEC; format: cell-based, Pseudomonas aeruginosa; settings: P. aeruginosa KCTC2004, Gram -, pH 6.6, 37 °C, triplicate, averaged
# Description: (§1) The antimicrobial activity of the AOD analogs was assessed with an ultrasensitive radial diffusion assay (URDA), as described previously. The antimicrobial activity of the analogs (from 31.3 to 1000 μg/mL, 5 μL volume) was tested against several bacteria, including Bacillus subtilis KCTC1021, Streptococcus mutans KCCM40105, Aeromonas hydrophila KCTC2358, Escherichia coli D31, E. coli ML35p, Pseudomonas aeruginosa KCTC2004, Salmonella enterica KCTC2514, and Shigella sonnei KCTC2009. In addition, Cutibacterium acnes KCTC3314, Staphylococcus epidermidis KCTC1917, and Candida albicans KCTC7965 were used for the anti-acne activity test. All except C. acnes KCTC3314 were grown overnight for 18 h in tryptic soy broth (TSB; for bacteria) or Sabouraud dextrose broth (SDB; for C. albicans) at the appropriate temperature (25 °C for A. hydrophila, 37 °C for the others). C. acnes was grown for 72 h in reinforced clostridial medium (RCM) under anaerobic conditions with an anaerobic gas-generating pouch (GasPak EZ; Becton Dickinson and Company, Sparks, MD, USA) at 37 °C. Following overnight or 72-h incubation, the bacterial and C. albicans suspensions were diluted to a McFarland turbidity standard level of 0.5 (Vitek Colorimeter #52-1210; Hach, Loveland, CO, USA) corresponding to approximately 10^8 colony forming units (CFU)/mL for bacteria and 10^6 CFU/mL for C. albicans. Diluted bacterial or C. albicans suspension (0.5 mL) was added to 9.5 mL underlay gel containing 5 × 10^6 or 5 × 10^4 CFU/mL in 10 mM phosphate buffer (pH 6.6) with 0.03% TSB (or RCM) or 0.03% SDB and 1% Type I low-electroendosmosis agarose. The AOD analogs were serially diluted two-fold in 5 µL acidified water (0.01% acetic acid; HAc) and each dilution was added to 2.5-mm diameter wells in the 1-mm thick underlay gel. After incubation for 3 h at either 25 °C (for A. hydrophila) or 37 °C (for the others), the bacterial or yeast suspension was overlaid with 10 mL double-strength overlay gel containing 6% TSB, RCM, or SDB with 10 mM phosphate buffer (pH 6.6) in 1% agarose. Plates were incubated for an additional 18–24 h (72 h for C. acnes) and the clearing zone diameters were measured. After subtracting the diameter of the well (2.5 mm), the clearing zone diameter was expressed in units (0.1 mm = 1 U).
# (§2) The minimal effective concentration (MEC; μg/mL) of the AOD analogs was calculated as the X-intercept of a plot of clearing zone diameter units against the log10 of the peptide concentration. Piscidin 1, an α-helical AMP isolated from hybrid striped bass (Morone saxatilis × Morone chrysops) was used as a positive control.
# S. mutans KCCM40105 = test: Ultrasensitive radial diffusion assay (URDA), MEC; format: cell-based, Streptococcus mutans; settings: S. mutans KCCM40105, Gram +, pH 6.6, 37 °C, triplicate, averaged
# Description: as §1, §2
# [3] = system: human red blood cells (RBCs; blood type B); settings: 3% hematocrit, 3.13–100 μg/mL, 60 min, 37 °C, absorbance 542 nm, triplicate
# B. subtilis KCTC1021 = test: Ultrasensitive radial diffusion assay (URDA), MEC; format: cell-based, Bacillus subtilis; settings: B. subtilis KCTC1021, Gram +, 10 mM phosphate buffer pH 6.6, 37 °C, X-intercept of clearing zone vs log10 concentration, triplicate, averaged
# Description: as §1, §2
# A. hydrophila KCTC2358 = test: Ultrasensitive radial diffusion assay (URDA), MEC; format: cell-based, Aeromonas hydrophila; settings: A. hydrophila KCTC2358, Gram -, pH 6.6, 25 °C, triplicate, averaged
# Description: as §1, §2
# S. enterica KCTC2514 = test: Ultrasensitive radial diffusion assay (URDA), MEC; format: cell-based, Salmonella enterica; settings: S. enterica KCTC2514, Gram -, pH 6.6, 37 °C, triplicate, averaged
# Description: as §1, §2
# E. coli ML35p = test: Ultrasensitive radial diffusion assay (URDA), MEC; format: cell-based, Escherichia coli; settings: Gram -, pH 6.6, 37 °C, triplicate, averaged
# Description: as §1, §2
# E. coli D31 = test: Ultrasensitive radial diffusion assay (URDA), MEC; format: cell-based, Escherichia coli; settings: E. coli D31, Gram -, pH 6.6, 37 °C, triplicate, averaged
# Description: as §1, §2
# S. sonnei KCTC2009 = test: Ultrasensitive radial diffusion assay (URDA), MEC; format: cell-based, Shigella sonnei; settings: S. sonnei KCTC2009, Gram -, pH 6.6, 37 °C, triplicate, averaged
# Description: as §1, §2
# C. albicans KCTC7965 = test: Ultrasensitive radial diffusion assay (URDA), MEC; format: cell-based, Candida albicans; settings: C. albicans KCTC7965, yeast, SDB, pH 6.6, 37 °C, triplicate, averaged
# Description: as §1, §2
# several microorganisms = settings: analog peptides from the C-terminus of MGD-1; cited from earlier work
# Source text: This peptide contains three disulfide bridges linked with six cysteine (Cys) residues, which contribute to its structural stability. For the development of potential AMPs from AOD, the AOD molecule may be inappropriate due to its complex structure containing six Cys residues and long sequence length (38 residues), which complicate the recreation of its structure and increase production costs. In a previou ...
# 100-bp DNA ladder = test: DNA binding assay (electrophoretic mobility shift); settings: 1 μg analog with 0.2 μg 100-bp DNA ladder, 37 °C, 60 min, 1.8% agarose gel with EtBr
# Description: To evaluate the binding ability of the AOD analogs to intracellular components, a DNA binding assay was performed as previously described with minor modifications. The DNA-binding ability of the AOD analogs was assessed through observation of the inhibition of migration of DNA bands through agarose gels. A commercial 100-bp DNA ladder (0.2 μg) (Bioneer Corp., Daejeon, South Korea) was mixed with each analog (1 μg) in 0.01% acetic acid, and the resulting mixture was incubated at 37 °C for 60 min and then electrophoresed on 1.8% agarose gels containing 0.5 μg/mL ethidium bromide (EtBr). HAc (0.01%) was used as a negative control.
# To determine the concentration required for the interaction of AOD analogs with DNA, a DNA binding assay was performed with various mixing ratios of analog A3 (0.25–1.0 μg/mL) and 100-bp DNA ladder (0.1–0.4 μg), as described above.
# S. epidermidis KCTC1917 = test: Ultrasensitive radial diffusion assay (URDA), MEC; format: cell-based, Staphylococcus epidermidis; settings: S. epidermidis KCTC1917, Gram +, pH 6.6, 37 °C, triplicate, averaged
# Description: as §1, §2
# C. acnes KCTC3314 = test: Ultrasensitive radial diffusion assay (URDA), MEC; format: cell-based, Cutibacterium acnes; settings: C. acnes KCTC3314, Gram +, anaerobic, RCM, 72 h, 37 °C, triplicate, averaged
# Description: as §1, §2
# V. parahaemolyticus gDNA = test: Bacterial gDNA binding (electrophoretic mobility shift); set-up: species or system Vibrio parahaemolyticus; settings: 1 μg of analog with V. parahaemolyticus gDNA, agarose gel
# Description: To evaluate the binding ability of the AOD analogs to intracellular components, a DNA binding assay was performed as previously described with minor modifications. The DNA-binding ability of the AOD analogs was assessed through observation of the inhibition of migration of DNA bands through agarose gels. […] HAc (0.01%) was used as a negative control.
Compound,inhibition of DNA amplification (PCR) [1],competitive binding between DNA and DNA polymerase (electrophoretic mobility of DNA) [2],Minimal Effective Concentration (P. aeruginosa KCTC2004),Minimal Effective Concentration (S. mutans KCCM40105),hemolytic activity [3],Minimal Effective Concentration (B. subtilis KCTC1021),Minimal Effective Concentration (A. hydrophila KCTC2358),Minimal Effective Concentration (S. enterica KCTC2514),Minimal Effective Concentration (E. coli ML35p),Minimal Effective Concentration (E. coli D31),Minimal Effective Concentration (S. sonnei KCTC2009),Minimal Effective Concentration (C. albicans KCTC7965),antimicrobial activity (in words) (several microorganisms),electrophoretic mobility of the DNA (DNA-binding ability) (100-bp DNA ladder),Minimal Effective Concentration (S. epidermidis KCTC1917),Minimal Effective Concentration (C. acnes KCTC3314),electrophoretic mobility of V. parahaemolyticus gDNA (V. parahaemolyticus gDNA)
"Piscidin 1: α-helical AMP isolated from hybrid striped bass, used as a positive control (FFHHIFRGIVHVGKTIHRLVTG) [reference compound]",did not inhibit,preferentially binds to DNA polymerase over DNA,8.0 µg/mL,3.2 µg/mL,"strong hemolysis, even at very low concentrations (from 6.25 μg/mL)",2.3 µg/mL,9.1 µg/mL,4.6 µg/mL,2.3 µg/mL,2.0 µg/mL,8.6 µg/mL,11.8 µg/mL,,,,,
CGGWHRLRC [analog peptide derived from the C-terminus (loop 3) of MGD-1],,,,,,,,,,,,,potent antimicrobial activity,,,,
N=C(N)NCCC[C@@H]1NC(=O)[C@H](CCCNC(=N)N)NC(=O)[C@H](CCCNC(=N)N)NC(=O)[C@H](CCCNC(=N)N)NC(=O)[C@H](Cc2c[nH]c3ccccc23)NC(=O)[C@H](CCCNC(=N)N)NC(=O)[C@H](CCCNC(=N)N)NC(=O)[C@@H](N)CSSC[C@@H](C(=O)O)NC1=O [Analog A3] (H-CRRWRRRRC-OH; disulfide 1-9),partially or completely inhibited,inhibited,3.0 µg/mL,1.5 µg/mL,,0.4 µg/mL,3.3 µg/mL,6.5 µg/mL,6.8 µg/mL,5.0 µg/mL,5.5 µg/mL,54.0 µg/mL,,inhibited,4.2 µg/mL,53.7 µg/mL,inhibited
CKKWKRKRC [Lys-substituted analog peptide derived from …],,,,,,,,,,,,,stronger antibacterial activity than the parent analog peptide,,,,
